# Measured values from US10877035B2, “Advanced drug development and manufacturing” (ICAGEN, LLC, priority 2006, dated 2020).
# What was measured:
# avidin = avidin (Gallus gallus, UniProt P02701); settings: 200 micrograms avidin and 0.20 millimolar LPA, same filtering
# Procedure: […] We diluted this sample to 0.75 ml in TRIS buffer (pH 8.0), centrifuged for 2 hours at 7000 g, and repeated this process twice.
# tetrameric avidin [1] = target: T1, tetrameric avidin (Gallus gallus, UniProt P02701); assay: RPM (x-ray fluorescence) measurement of sulfur in avidin-biotin complex versus avidin; type: binding; settings: 500 micrograms avidin, 0.20 millimolar biotin, pH 8.0, after ultrafiltration
# T1 construct: purchased Sigma-Aldrich
# T1 sequence (P02701 25-152): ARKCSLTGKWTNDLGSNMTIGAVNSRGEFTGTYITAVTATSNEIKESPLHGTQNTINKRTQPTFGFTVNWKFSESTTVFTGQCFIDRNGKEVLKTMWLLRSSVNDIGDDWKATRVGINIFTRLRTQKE
# Description: Previous studies have shown that the ratio of sulfur in avidin-biotin:avidin is 19.5:16, or 1.22, see Green N. Mex. Purification of Avidin. Meth Enzymol. 1970, XVIII(A):414-417. […] We treated an avidin control sample identically. We used RPM to measure the sulfur content of the avidin-biotin complex and the avidin. We confirmed that the amount of avidin in each sample was identical using bicinchoninic acid protein assay kit (Pierce). As predicted, the avidin-biotin complex contained 1.2 times the sulfur than the avidin alone as measured by RPM.
# tetrameric avidin [2] = target: T1, tetrameric avidin; settings: previous studies; cited from earlier work
# COX-2 = target: T2, COX-2 (Canis lupus familiaris, UniProt Q8SPQ9); settings: canine, relative to COX-1 column; cited from earlier work
# T2 sequence (Q8SPQ9 18-604): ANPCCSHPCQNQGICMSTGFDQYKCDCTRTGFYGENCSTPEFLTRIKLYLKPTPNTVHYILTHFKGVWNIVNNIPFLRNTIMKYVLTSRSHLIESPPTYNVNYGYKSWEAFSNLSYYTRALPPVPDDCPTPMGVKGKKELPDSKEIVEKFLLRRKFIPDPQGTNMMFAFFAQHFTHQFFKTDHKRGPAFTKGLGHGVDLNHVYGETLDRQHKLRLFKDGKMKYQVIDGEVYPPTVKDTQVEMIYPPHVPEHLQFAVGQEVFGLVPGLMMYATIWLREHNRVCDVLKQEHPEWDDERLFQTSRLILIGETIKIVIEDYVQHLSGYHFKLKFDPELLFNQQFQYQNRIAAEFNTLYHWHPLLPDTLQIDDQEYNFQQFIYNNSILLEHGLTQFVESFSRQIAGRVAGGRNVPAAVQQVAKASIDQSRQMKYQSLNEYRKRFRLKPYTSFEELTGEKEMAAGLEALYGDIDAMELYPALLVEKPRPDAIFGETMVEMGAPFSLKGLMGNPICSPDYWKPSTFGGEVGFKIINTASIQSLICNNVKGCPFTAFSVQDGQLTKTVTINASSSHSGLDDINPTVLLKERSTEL
# COX-1 = target: T3, COX-1 (Canis lupus familiaris, UniProt Q8HZR1); settings: cited from earlier work
# T3 sequence (Q8HZR1 28-603): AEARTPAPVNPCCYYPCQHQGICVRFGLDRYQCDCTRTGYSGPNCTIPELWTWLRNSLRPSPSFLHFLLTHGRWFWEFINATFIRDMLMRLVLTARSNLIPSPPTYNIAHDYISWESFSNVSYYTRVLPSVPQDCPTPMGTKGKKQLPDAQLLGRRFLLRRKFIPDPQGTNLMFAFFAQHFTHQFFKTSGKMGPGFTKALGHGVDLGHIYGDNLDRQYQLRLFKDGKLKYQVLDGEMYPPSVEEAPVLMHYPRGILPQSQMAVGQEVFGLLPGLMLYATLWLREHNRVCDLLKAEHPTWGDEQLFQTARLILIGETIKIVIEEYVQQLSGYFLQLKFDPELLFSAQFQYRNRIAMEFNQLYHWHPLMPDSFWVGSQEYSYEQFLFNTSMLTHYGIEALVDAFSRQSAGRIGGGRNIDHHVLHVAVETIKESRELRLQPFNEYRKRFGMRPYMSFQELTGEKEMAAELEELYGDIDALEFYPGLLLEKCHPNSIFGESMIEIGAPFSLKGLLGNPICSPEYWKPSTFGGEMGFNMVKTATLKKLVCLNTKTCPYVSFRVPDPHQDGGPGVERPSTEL
# avidin, sequence (P02701 25-152): as the sequence (P02701 25-152) above
compound,measurement,setting,value
leucine phosphonic acid [LPA],phosphorus observed in control samples,avidin,no phosphorus was observed
O=C(O)CCCC[C@@H]1SC[C@@H]2NC(=O)N[C@@H]21 [biotin],sulfur in avidin-biotin complex relative to avidin alone as measured by RPM,tetrameric avidin [1],1.2 times
same,ratio of sulfur in avidin-biotin:avidin,tetrameric avidin [2],1.22
CC(C(=O)O)c1cccc(C(=O)c2ccccc2)c1 (stereo not drawn) [Ketoprofen],"selectivity data, COX-2",COX-2,.6
same,selectivity in favor of COX-1 versus COX-2,COX-1; according to TABLE 3,1 to 0.6
same,"selectivity data, COX-1","COX-1; canine, relative to COX-2 column",1
